The assay has as its system L1210 leukemia ip in BDF1 mice, survival T/C. In words: NCI In Vivo Anticancer Drug Screen. Data for tumor model L1210 Leukemia (intraperitoneal) in B6D2F1 (BDF1) mice. The settings on record: endpoint: mean survival time, higher = longer survival. In outline:
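In this screen, tumor-bearing mice given compound are compared to those given vehicle, and their survival values are reported as a treated-to-control quotient.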

Setting [1] is: dose: 100.0 mg/kg/injection, schedule: Q04DX002 (ip), vehicle: Klucel (hydroxypropylcellulose) (HPC).
The mark [2] stands for this setting: dose: 200.0 mg/kg/injection, schedule: Q04DX002 (ip), vehicle: Klucel (hydroxypropylcellulose) (HPC).
Setting [3] is: dose: 400.0 mg/kg/injection, schedule: Q04DX002 (ip), vehicle: Klucel (hydroxypropylcellulose) (HPC).
Setting [4] is: dose: 100.0 mg/kg/injection, schedule: Q04DX002 (ip), vehicle: saline with Tween-80.
[5] abbreviates: dose: 200.0 mg/kg/injection, schedule: Q04DX002 (ip), vehicle: saline with Tween-80.
Where [6] appears, read: dose: 100.0 mg/kg/injection, schedule: Q04DX002 (ip), vehicle: saline.

Where “and” joins values, the source holds several entries; their conditions need not be identical. Equal entries are not always repeated. Toxic doses and inconclusive results are not listed.

Take `CC(C)(N)COC(=O)c1ccc([N+](=O)[O-])cc1`: the T/C (dose: 50.0 mg/kg/injection, schedule: Q01DX009 (ip), vehicle: acetone) was 101 % of control; the T/C (dose: 100.0 mg/kg/injection, schedule: Q01DX009 (ip), vehicle: acetone) is 101 % of control; the T/C (dose: 200.0 mg/kg/injection, schedule: Q01DX009 (ip), vehicle: acetone) is 95 % of control.
For `CC(=O)c1ccc(C)c([N+](=O)[O-])c1`, the T/C was 98 % of control (dose: 50.0 mg/kg/injection, schedule: Q01DX001 (ip), vehicle: carboxymethylcellulose (CMC)); 91 % of control (dose: 100.0 mg/kg/injection, schedule: Q01DX001 (ip), vehicle: carboxymethylcellulose (CMC)); 107 % of control (dose: 200.0 mg/kg/injection, schedule: Q01DX001 (ip), vehicle: carboxymethylcellulose (CMC)); 91 % of control (dose: 400.0 mg/kg/injection, schedule: Q01DX001 (ip), vehicle: carboxymethylcellulose (CMC)).
With `Nc1nc2ncc(CNc3ccc(CCC(=O)NC(CCC(=O)O)C(=O)O)cc3)nc2c(=O)[nH]1` (centres undefined), the T/C (dose: 50.0 mg/kg/injection, schedule: Q01DX001 (ip), vehicle: saline with Tween-80) was 108 % of control; the T/C (dose: 100.0 mg/kg/injection, schedule: Q01DX001 (ip), vehicle: saline with Tween-80) was 100 % of control; the T/C (dose: 200.0 mg/kg/injection, schedule: Q01DX001 (ip), vehicle: saline with Tween-80) was 101 % of control.
Consider `CCOC(=O)CNc1ccc(F)cc1Cl`, for which the T/C by setting is: under setting [1], 105 % of control; under setting [2], 101 % of control; under setting [3], 105 % of control.
Turning to `C(=C(c1ccccc1)c1ccccc1)C1=NCCS1`, the T/C (dose: 50.0 mg/kg/injection, schedule: Q04DX002 (ip), vehicle: saline with Tween-80) is 108 % of control; the T/C (dose: 100.0 mg/kg/injection, schedule: Q03DX002 (ip), vehicle: saline with Tween-80) was 98 % of control; the T/C under setting [4] was 101 % of control; the T/C under setting [5] was 104 % of control; the T/C (dose: 400.0 mg/kg/injection, schedule: Q03DX002 (ip), vehicle: saline with Tween-80) is 117 % of control.
Turning to `CC(=O)OC1C=CN(C(C)=O)C(SC23CC4CC(CC(C4)C2)C3)C1OC(C)=O` (centres undefined), the T/C (dose: 100.0 mg/kg/injection, schedule: Q04DX003 (ip), vehicle: Klucel (hydroxypropylcellulose) (HPC)) is 92 % of control; the T/C (dose: 200.0 mg/kg/injection, schedule: Q04DX003 (ip), vehicle: Klucel (hydroxypropylcellulose) (HPC)) is 100 % of control; the T/C (dose: 400.0 mg/kg/injection, schedule: Q04DX003 (ip), vehicle: Klucel (hydroxypropylcellulose) (HPC)) was 92 % of control.
Take `CCOC(=O)C1CCC(NC(=O)N(CCCl)N=O)CC1` (centres undefined): the T/C is 109 % of control (dose: 3.0 mg/kg/injection, schedule: Q01DX001 (ip), vehicle: other); 189 % of control (dose: 12.0 mg/kg/injection, schedule: Q01DX001 (ip), vehicle: other); 281 % of control (dose: 16.0 mg/kg/injection, schedule: Q01DX001 (ip), vehicle: other); 298 % of control (dose: 20.0 mg/kg/injection, schedule: Q01DX001 (ip), vehicle: other); 315 % of control (dose: 21.0 mg/kg/injection, schedule: Q01DX001 (ip), vehicle: other); 267 % of control (dose: 24.0 mg/kg/injection, schedule: Q01DX001 (ip), vehicle: other). The T/C reads like this: (dose: 30.0 mg/kg/injection, schedule: Q01DX001 (ip), vehicle: other) 283 % of control; (dose: 31.0 mg/kg/injection, schedule: Q01DX001 (ip), vehicle: other) 317 % of control and 337 % of control; (dose: 44.0 mg/kg/injection, schedule: Q01DX001 (ip), vehicle: other) 270 % of control; (dose: 47.0 mg/kg/injection, schedule: Q01DX001 (ip), vehicle: other) 252 % of control; (dose: 62.0 mg/kg/injection, schedule: Q01DX001 (ip), vehicle: other) 259 % of control; (dose: 70.0 mg/kg/injection, schedule: Q01DX001 (ip), vehicle: other) 159 % of control.
For the compound `O=S(=O)(O)c1ccc(CCCCCCCCCl)cc1`, the T/C is, setting by setting: under setting [6], 87 % of control; (dose: 200.0 mg/kg/injection, schedule: Q04DX002 (ip), vehicle: saline) 93 % of control.
Regarding `CC(C(O)c1ccc2cc(Br)c3ccccc3c2c1)N(C)C` (centres undefined), the T/C (dose: 55.0 mg/kg/injection, schedule: Q01DX Z (ip), vehicle: methylcellulose (MC)) was 101 % of control; the T/C (dose: 83.0 mg/kg/injection, schedule: Q01DX Z (ip), vehicle: methylcellulose (MC)) is 101 % of control; the T/C (dose: 125.0 mg/kg/injection, schedule: Q01DX Z (ip), vehicle: methylcellulose (MC)) is 101 % of control.
Turning to `NC(CSS(=O)(=O)O)=NCc1ccncc1`, the T/C is, setting by setting: (dose: 25.0 mg/kg/injection, schedule: Q04DX002 (ip), vehicle: saline) 95 % of control; (dose: 50.0 mg/kg/injection, schedule: Q04DX002 (ip), vehicle: saline) 103 % of control; under setting [6], 123 % of control.
For `CCNC(=S)Nc1ccc(OCC)cc1`, the T/C is, setting by setting: under setting [4], 89 % of control; under setting [5], 95 % of control; (dose: 400.0 mg/kg/injection, schedule: Q04DX002 (ip), vehicle: saline with Tween-80) 100 % of control.
As to `CC1(C(=O)O)CCCC1C(CCC(=O)O)C(=O)O` (centres undefined), the T/C reads like this: (dose: 100.0 mg/kg/injection, schedule: Q01DX001 (ip), vehicle: saline) 97 % of control; (dose: 200.0 mg/kg/injection, schedule: Q01DX001 (ip), vehicle: saline) 95 % of control; (dose: 400.0 mg/kg/injection, schedule: Q01DX001 (ip), vehicle: saline) 92 % of control.
As to `Cc1ccc(NC(=O)CCC(=O)O)cc1Cl`, the T/C is 102 % of control (dose: 100.0 mg/kg/injection, schedule: Q01DX009 (ip), vehicle: Klucel (hydroxypropylcellulose) (HPC)); 92 % of control (dose: 200.0 mg/kg/injection, schedule: Q01DX009 (ip), vehicle: Klucel (hydroxypropylcellulose) (HPC)); 89 % of control (dose: 400.0 mg/kg/injection, schedule: Q01DX009 (ip), vehicle: Klucel (hydroxypropylcellulose) (HPC)).
Take `Cc1ccc(NC(=O)Nc2ccccc2C(F)(F)F)cc1NC(=O)Nc1ccccc1C(F)(F)F`: the T/C runs as follows: (dose: 100.0 mg/kg/injection, schedule: Q01DX009 (ip), vehicle: saline with Tween-80) 92 % of control; (dose: 200.0 mg/kg/injection, schedule: Q01DX009 (ip), vehicle: saline with Tween-80) 90 % of control; (dose: 400.0 mg/kg/injection, schedule: Q01DX009 (ip), vehicle: saline with Tween-80) 92 % of control.
`O=C1c2ccccc2C(=O)N1c1cc(OCc2ccccc2)cc(OCc2ccccc2)c1`: the T/C runs as follows: (dose: 100.0 mg/kg/injection, schedule: Q01DX009 (ip), vehicle: water) 94 % of control; (dose: 100.0 mg/kg/injection, schedule: Q04DX003 (ip), vehicle: water) 104 % of control; (dose: 200.0 mg/kg/injection, schedule: Q01DX009 (ip), vehicle: water) 91 % of control; (dose: 200.0 mg/kg/injection, schedule: Q04DX003 (ip), vehicle: water) 102 % of control; (dose: 400.0 mg/kg/injection, schedule: Q01DX009 (ip), vehicle: water) 91 % of control; (dose: 400.0 mg/kg/injection, schedule: Q04DX003 (ip), vehicle: water) 102 % of control.
Turning to `O=S(=O)(O)c1ccc2cc(O)c(O)cc2c1`, the T/C is, setting by setting: under setting [1], 91 % of control; under setting [2], 95 % of control; under setting [3], 95 % of control.
In the case of `Cc1cccc(C(=O)CC(O)(C(F)(F)F)C(F)(F)F)c1`, the T/C is 98 % of control (dose: 50.0 mg/kg/injection, schedule: Q04DX003 (ip), vehicle: saline with Tween-80); 100 % of control (dose: 100.0 mg/kg/injection, schedule: Q04DX003 (ip), vehicle: saline with Tween-80); 91 % of control (dose: 200.0 mg/kg/injection, schedule: Q04DX003 (ip), vehicle: saline with Tween-80); 102 % of control (dose: 400.0 mg/kg/injection, schedule: Q04DX003 (ip), vehicle: saline with Tween-80).
In the case of `CC(=O)Oc1c2ccccc2c2c3c(cccc13)C(=O)O2`, the T/C was 95 % of control (dose: 100.0 mg/kg/injection, schedule: Q01DX001 (ip), vehicle: Klucel (hydroxypropylcellulose) (HPC)); 95 % of control (dose: 200.0 mg/kg/injection, schedule: Q01DX001 (ip), vehicle: Klucel (hydroxypropylcellulose) (HPC)); 95 % of control (dose: 400.0 mg/kg/injection, schedule: Q01DX001 (ip), vehicle: Klucel (hydroxypropylcellulose) (HPC)).

The values are drawn from PubChem BioAssay AID248 (DTP/NCI, 2004).
